Test results published in the NIST ThermoML archive (doi:10.1021/je034251+).
± gives the expanded uncertainty stated by the source.

Conditions: for mass density: isochoric method

COC [dimethyl ether]
Conditions	Critical temperature [K]	mass density [kg/m3]
301.82 K, Liquid	–	654.54 ± 0.33
320.08 K, Liquid	–	623.9 ± 0.33
330.63 K, Liquid	–	604.34 ± 0.33
339.47 K, Liquid	–	585.82 ± 0.33
347.34 K, Liquid	–	567.13 ± 0.32
359 K, Liquid	–	540.45 ± 0.32
365.69 K, Liquid	–	522.25 ± 0.32
366.69 K, Gas	–	66.75 ± 0.2
372.15 K, Liquid	–	503.13 ± 0.32
378.81 K, Liquid	–	479.19 ± 0.32
380.95 K, Gas	–	96.42 ± 0.2
384.5 K, Liquid	–	454.66 ± 0.32
390.86 K, Gas	–	130.05 ± 0.21
393.65 K, Liquid	–	405.87 ± 0.32
396.06 K, Gas	–	161.3 ± 0.22
398.21 K, Liquid	–	361.58 ± 0.34
399.34 K, Gas	–	203.55 ± 0.28
400.32 K, Liquid	–	299.12 ± 0.43
400.35 K, Gas	–	253.84 ± 0.54
400.35 K, Liquid	–	285.01 ± 0.47
400.36 K, Gas	–	264.02 ± 0.63
400.36 K, Liquid	–	278.92 ± 0.49
400.38 K, Liquid	–	276.19 ± 0.5
Liquid, Visual observation in an unstirred cell	400.38 ± 0.062	–

Conditions	Critical density [kg/m3]
Liquid	272 ± 2
